Residues, ends and D or L forms follow the SMILES beside them. *: point of attachment. Cbz = O=C(OCc1ccccc1)*; OtBu = CC(C)(C)O*
Biological target: T1, human Nav1.7 (Homo sapiens, UniProt Q15858)
T1 construct: expressed in transfected cells; host or cells: HEK293 stably expressing human Nav1.7
Assay: Whole-cell patch-clamp, HEK293 cells stably expressing human Nav1.7 with GFP or FGF13-GFP
Format: cell-based
Parameters: Nav1.7 repriming time course, Mean / Figure 4I, Mean versus Time (ms): unit not given here
Settings: for use dependency, normalized INa amplitude, Mean: Fig 1I; for long-term inactivation, Mean: Fig 1J; for Nav1.7 repriming time course, Mean: Fig 1K; for Nav1.7 repriming time course, Mean / Time constant of repriming, Mean: PW164; for Time constant of repriming, Mean: Fig 1L
Protocol: Whole-cell patch clamp electrophysiology
HEK293-Nav1.7 cells, HEK293 stably expressing human Nav1.6 (HEK-Nav1.6), HEK293 stably expressing human Nav1.5 (HEK-Nav1.5), human hIPSC-derived sensory neurons (RealDRGTM from Anatomic Incorporated 1020F1-1M) and donor-derived DRG neurons were plated at low density on glass coverslips and processed for whole-cell patch clamp electrophysiology in voltage-clamp and/or current clamp mode. Whole-cell patch electrophysiological experiments were conducted following previously published studies (26). Current densities were obtained by dividing INa amplitude by membrane capacitance. Current –voltage relationships were generated by plotting current density as a function of the […]. Conductance (G Na) was calculated by the […]
where INa is the current amplitude at voltage Vm, and Erev is the Na+ reversal potential.
Activation curves were derived by plotting normalized GNa as a function of test potential and fitted using […]
Where GNa,Max is the maximum conductance, Va is the membrane potential of half-maximal activation, Em is the membrane voltage and k is the slope factor. For steady -state inactivation, normalized current amplitude (INa/INa,Max) at the test potential was plotted as a function of prepulse potential (Vm) and fitted using the […]
Where Vh is the potential of half-maximal inactivation, E m is the membrane voltage, and k is the slope factor.
Transient INa inactivation decay was estimated with the standard exponential equation. Inactivation time constant (tau, τ) was fitted with the following equation: […]
where I(t) is the amplitude of the current at time t and Iss is the steady-state current during a single voltage-step.
The goodness of fitting was determined by correlation coefficient (R), and the cutoff of R was set at 0.85. To observe effects on long-term inactivation (LTI), a four-step protocol was employed during which cells were subjected to four 0 mV, 20 ms depolarization pulses separated by −90 mV, 40 ms recovery intervals. To control for various cell sizes, the current densities were calculated by dividing INa peak current amplitude/membrane capacitance (Cm). To represent the fraction of channels entering into LTI, the peak INa observed during depolarization cycles 2-4 was normalized to the peak INa observed during depolarization cycle 1 (INa/INa,Cycle 1) and plotted as a function of the depolarization cycle.
The cumulative (frequency-dependent) use-dependency was determined by applying 20 pulses with a depolarization to −10 mV (50 ms duration) and 50 ms recovery intervals with a train of 20 pulses at 10 Hz from a holding potential at -70 mV. The current pulses were normalized to the first reco rded pulse and the currents at the 2nd to 20th pulses were compared. The same train was used to record use-dependency at various frequencies […]
The rate of recovery from inactivation was recorded at -80 mV with a standard repriming voltage protocol.
The cells were prepulsed to -20 mV for 20 ms to inactivate all currents, then driven back to the recovery potential (Vrec) for increasing recovery durations before the test pulse to 0 mV. The maximum pulse rate was 0.5 Hz. The […]
follows previous publications (16). The time constants were estimated from single exponential decay to time courses measured at recovery potentials ranging from -140 to -60 mV with the protocol as mentioned above.
Electrophysiological Recordings
HEK293 cells: Electrophysiological recordings in HEK293 stably expressing Nav1.7 (HEK-Nav1.7), Nav1.5 (HEK-Nav1.5) or Nav1.6 (HEK-Nav1.6) were performed at room temperature using a MultiClamp 700B or an Axopatch 200B amplifier (Molecular Devices) after incubating coverslips for 60 minutes either with 0.1% DMSO or 50 μM PW164 or ZL192 in the extracellular solution. The composition of recording solutions consisted of the […]
following salts: extracellular (mM): 140 NaCl, 3 KCl, 1 MgCl2, 1 CaCl2, 10 HEPES, 10 glucose, pH 7.3; […]
intracellular (mM): 130 CH3O3 SCs, 1 EGTA, 10 NaCl, 10 HEPES, pH 7.3. […]

T1 sequence (Q92913 1-192 partner limits assumed): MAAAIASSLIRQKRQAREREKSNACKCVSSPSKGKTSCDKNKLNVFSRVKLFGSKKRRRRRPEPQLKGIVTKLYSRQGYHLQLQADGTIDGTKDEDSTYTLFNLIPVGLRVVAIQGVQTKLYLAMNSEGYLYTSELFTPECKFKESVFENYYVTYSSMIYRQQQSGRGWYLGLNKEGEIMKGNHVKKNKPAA
T1 sequence (Q15858 1-1977 isoform Q15858-3): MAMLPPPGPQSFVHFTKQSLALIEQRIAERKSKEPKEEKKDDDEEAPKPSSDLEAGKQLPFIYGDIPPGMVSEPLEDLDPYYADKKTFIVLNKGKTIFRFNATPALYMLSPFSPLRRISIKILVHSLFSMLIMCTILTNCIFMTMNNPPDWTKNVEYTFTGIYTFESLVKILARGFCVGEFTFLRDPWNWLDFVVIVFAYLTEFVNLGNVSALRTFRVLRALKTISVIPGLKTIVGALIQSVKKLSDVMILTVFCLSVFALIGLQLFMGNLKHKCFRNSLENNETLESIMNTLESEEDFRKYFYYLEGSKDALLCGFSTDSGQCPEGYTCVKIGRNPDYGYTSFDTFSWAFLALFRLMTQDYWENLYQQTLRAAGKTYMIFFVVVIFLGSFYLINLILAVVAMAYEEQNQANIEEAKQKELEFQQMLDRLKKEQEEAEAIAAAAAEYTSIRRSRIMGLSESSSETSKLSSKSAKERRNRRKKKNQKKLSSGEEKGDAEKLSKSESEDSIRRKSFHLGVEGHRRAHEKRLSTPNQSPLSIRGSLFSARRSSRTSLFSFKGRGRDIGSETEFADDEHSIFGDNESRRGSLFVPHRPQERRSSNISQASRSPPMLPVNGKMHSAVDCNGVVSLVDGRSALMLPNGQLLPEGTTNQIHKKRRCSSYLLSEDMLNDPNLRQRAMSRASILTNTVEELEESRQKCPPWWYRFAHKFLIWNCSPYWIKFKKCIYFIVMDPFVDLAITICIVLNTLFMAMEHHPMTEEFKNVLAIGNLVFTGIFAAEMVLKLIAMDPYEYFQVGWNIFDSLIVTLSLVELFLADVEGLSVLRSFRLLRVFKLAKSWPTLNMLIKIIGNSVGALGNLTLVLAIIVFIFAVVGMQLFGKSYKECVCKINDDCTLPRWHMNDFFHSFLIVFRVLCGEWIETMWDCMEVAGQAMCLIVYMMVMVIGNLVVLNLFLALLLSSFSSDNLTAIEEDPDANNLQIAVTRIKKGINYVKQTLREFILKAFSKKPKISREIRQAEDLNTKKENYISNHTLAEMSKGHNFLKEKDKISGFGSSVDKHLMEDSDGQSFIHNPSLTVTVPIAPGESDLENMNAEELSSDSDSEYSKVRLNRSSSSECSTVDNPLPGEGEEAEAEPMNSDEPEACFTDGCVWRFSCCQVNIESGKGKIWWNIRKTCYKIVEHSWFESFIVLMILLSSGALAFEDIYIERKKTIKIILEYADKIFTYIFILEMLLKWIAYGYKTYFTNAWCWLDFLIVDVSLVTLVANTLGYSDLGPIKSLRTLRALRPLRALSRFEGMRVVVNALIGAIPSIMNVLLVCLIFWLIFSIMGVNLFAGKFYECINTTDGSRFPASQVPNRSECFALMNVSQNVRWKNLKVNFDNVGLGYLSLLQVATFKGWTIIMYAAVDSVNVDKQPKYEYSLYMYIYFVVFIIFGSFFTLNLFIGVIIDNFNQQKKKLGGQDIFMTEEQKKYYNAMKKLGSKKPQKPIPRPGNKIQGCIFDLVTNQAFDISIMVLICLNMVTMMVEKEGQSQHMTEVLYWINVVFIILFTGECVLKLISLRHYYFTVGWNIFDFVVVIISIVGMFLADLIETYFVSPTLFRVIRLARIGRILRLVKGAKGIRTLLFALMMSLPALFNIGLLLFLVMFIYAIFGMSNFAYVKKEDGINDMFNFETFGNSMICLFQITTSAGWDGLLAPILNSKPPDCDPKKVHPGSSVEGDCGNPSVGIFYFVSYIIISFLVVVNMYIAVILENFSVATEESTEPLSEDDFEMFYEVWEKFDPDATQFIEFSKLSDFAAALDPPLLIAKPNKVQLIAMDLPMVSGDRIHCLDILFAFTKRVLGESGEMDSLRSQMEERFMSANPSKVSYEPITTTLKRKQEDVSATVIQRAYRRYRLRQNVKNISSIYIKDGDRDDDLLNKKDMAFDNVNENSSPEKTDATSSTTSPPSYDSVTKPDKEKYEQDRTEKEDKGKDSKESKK

COC(=O)[C@@H](NC(=O)[C@H](CCC(=O)OC(C)(C)C)NC(=O)[C@H](CC(C)C)NC(=O)[C@@H]1CCCN1C(=O)OCc1ccccc1)C(C)C [PW164] (Cbz-PLE(OtBu)V-OMe)
use dependency, normalized INa amplitude, Mean (FGF13-GFP + PW164, Pulse 1): 1 | use dependency, normalized INa amplitude, Mean (FGF13-GFP + PW164, Pulse 3): 0.7166 | use dependency, normalized INa amplitude, Mean (FGF13-GFP + PW164, Pulse 6): 0.6629 | use dependency, normalized INa amplitude, Mean (FGF13-GFP + PW164, Pulse 10): 0.6585 | use dependency, normalized INa amplitude, Mean (FGF13-GFP + PW164, Pulse 15): 0.6477 | use dependency, normalized INa amplitude, Mean (FGF13-GFP + PW164, Pulse 20): 0.6421 | use dependency, normalized INa amplitude, Mean (GFP + PW164, Pulse 1): 1 | use dependency, normalized INa amplitude, Mean (GFP + PW164, Pulse 3): 0.9017 | use dependency, normalized INa amplitude, Mean (GFP + PW164, Pulse 6): 0.9079 | use dependency, normalized INa amplitude, Mean (GFP + PW164, Pulse 10): 0.9071 | use dependency, normalized INa amplitude, Mean (GFP + PW164, Pulse 15): 0.9039 | use dependency, normalized INa amplitude, Mean (GFP + PW164, Pulse 20): 0.8633 | long-term inactivation, Mean (FGF13-GFP + PW164, Pulse 1): 100 | long-term inactivation, Mean (FGF13-GFP + PW164, Pulse 2): 69.7175 | long-term inactivation, Mean (FGF13-GFP + PW164, Pulse 3): 60.3266 | long-term inactivation, Mean (FGF13-GFP + PW164, Pulse 4): 59.3421 | long-term inactivation, Mean (GFP + PW164, Pulse 1): 100 | long-term inactivation, Mean (GFP + PW164, Pulse 2): 67.9412 | long-term inactivation, Mean (GFP + PW164, Pulse 3): 62.3462 | long-term inactivation, Mean (GFP + PW164, Pulse 4): 60.9288 | Nav1.7 repriming time course, Mean (Nav1.7 + FGF13-GFP, Time (ms) 2): -1.745 | Nav1.7 repriming time course, Mean (Nav1.7 + FGF13-GFP, Time (ms) 5): -3.217 | Nav1.7 repriming time course, Mean (Nav1.7 + FGF13-GFP, Time (ms) 9): -6.791 | Nav1.7 repriming time course, Mean (Nav1.7 + FGF13-GFP, Time (ms) 17): -10.2331 | Nav1.7 repriming time course, Mean (Nav1.7 + FGF13-GFP, Time (ms) 33): -13.6908 | Nav1.7 repriming time course, Mean (Nav1.7 + FGF13-GFP, Time (ms) 65): -18.7676 | Nav1.7 repriming time course, Mean (Nav1.7 + FGF13-GFP, Time (ms) 129): -22.4288 | Nav1.7 repriming time course, Mean (Nav1.7 + FGF13-GFP, Time (ms) 257): -26.5719 | Nav1.7 repriming time course, Mean (Nav1.7 + FGF13-GFP, Time (ms) 513): -28.3171 | Nav1.7 repriming time course, Mean (Nav1.7 + FGF13-GFP, Time (ms) 1025): -29.4614 | Nav1.7 repriming time course, Mean (Nav1.7 + FGF13-GFP, Time (ms) 2000): -30.5045 | Nav1.7 repriming time course, Mean (Nav1.7 + GFP, Time (ms) 2): -0.8155 | Nav1.7 repriming time course, Mean (Nav1.7 + GFP, Time (ms) 5): -1.631 | Nav1.7 repriming time course, Mean (Nav1.7 + GFP, Time (ms) 9): -4.0928 | Nav1.7 repriming time course, Mean (Nav1.7 + GFP, Time (ms) 17): -9.754 | Nav1.7 repriming time course, Mean (Nav1.7 + GFP, Time (ms) 33): -14.6809 | Nav1.7 repriming time course, Mean (Nav1.7 + GFP, Time (ms) 65): -21.498 | Nav1.7 repriming time course, Mean (Nav1.7 + GFP, Time (ms) 129): -26.6853 | Nav1.7 repriming time course, Mean (Nav1.7 + GFP, Time (ms) 257): -32.6576 | Nav1.7 repriming time course, Mean (Nav1.7 + GFP, Time (ms) 513): -33.7798 | Nav1.7 repriming time course, Mean (Nav1.7 + GFP, Time (ms) 1025): -35.5926 | Nav1.7 repriming time course, Mean (Nav1.7 + GFP, Time (ms) 2000): -36.9364 | Time constant of repriming, Mean (Nav1.7 + FGF13-GFP, recovery potential -60): 51.44 ms | Time constant of repriming, Mean (Nav1.7 + FGF13-GFP, recovery potential -70): 60.77 ms | Time constant of repriming, Mean (Nav1.7 + FGF13-GFP, recovery potential -80): 68.88 ms | Time constant of repriming, Mean (Nav1.7 + FGF13-GFP, recovery potential -90): 64.58 ms

From publication PMC12259270, “Sensory neuron–expressed FGF13 controls nociceptive signaling in diabetic neuropathy models” (The Journal of Clinical Investigation, 2025)
